Test results published in the NIST ThermoML archive (doi:10.1016/j.fluid.2016.06.011).
Numbers after ± are expanded uncertainties.

Settings: Liquid; for mass density: 101.33 kPa, Vibrating tube method; for vapor or sublimation pressure: Closed cell (Static) method

OCC(F)(F)C(F)(F)F [2,2,3,3,3-pentafluoropropanol]
Settings	mass density [kg/m3]	vapor or sublimation pressure [kPa]
278.16 K	1542.78 ± 2.2	–
279.15 K	1540.99 ± 2.2	–
280.15 K	1539.17 ± 2.2	–
281.15 K	1537.35 ± 2.2	–
282.15 K	1535.52 ± 2.1	–
283.15 K	1533.69 ± 2.1	–
284.15 K	1531.86 ± 2.1	–
285.15 K	1530.02 ± 2.1	–
286.15 K	1528.18 ± 2.1	–
287.15 K	1526.33 ± 2.1	–
288.15 K	1524.47 ± 2.1	–
289.15 K	1522.62 ± 2.1	–
290.15 K	1520.75 ± 2.1	–
291.15 K	1518.88 ± 2.1	–
292.15 K	1517 ± 2.1	–
293.15 K	1515.12 ± 2.1	–
294.15 K	1513.23 ± 2.1	–
295.15 K	1511.35 ± 2.1	–
296.15 K	1509.44 ± 2.1	–
297.15 K	1507.54 ± 2.1	–
298.08 K	–	6.205 ± 0.05
298.15 K	1505.63 ± 2.1	–
299.15 K	1503.71 ± 2.1	–
300.15 K	1501.79 ± 2.1	–
301.15 K	1499.86 ± 2	–
302.15 K	1497.92 ± 2	–
303.05 K	–	8.416 ± 0.058
303.15 K	1495.97 ± 2	–
304.15 K	1494.03 ± 2	–
305.14 K	1492.07 ± 2	–
306.15 K	1490.1 ± 2	–
307.15 K	1488.13 ± 2	–
308.04 K	–	11.31 ± 0.074
308.15 K	1486.15 ± 2	–
309.14 K	1484.16 ± 2	–
310.14 K	1482.16 ± 2	–
311.14 K	1480.16 ± 2	–
312.14 K	1478.14 ± 2	–
313.01 K	–	14.97 ± 0.094
313.14 K	1476.12 ± 2	–
314.15 K	1474.09 ± 2	–
315.15 K	1472.06 ± 2	–
316.14 K	1470.01 ± 2	–
317.14 K	1467.95 ± 2	–
317.98 K	–	19.59 ± 0.12
318.15 K	1465.89 ± 2	–
319.14 K	1463.82 ± 1.9	–
320.14 K	1461.73 ± 1.9	–
321.15 K	1459.64 ± 1.9	–
322.14 K	1457.55 ± 1.9	–
322.96 K	–	25.41 ± 0.15
323.14 K	1455.43 ± 1.9	–
324.14 K	1453.31 ± 1.9	–
325.14 K	1451.18 ± 1.9	–
326.14 K	1449.05 ± 1.9	–
327.14 K	1446.89 ± 1.9	–
327.93 K	–	32.49 ± 0.17
328.15 K	1444.74 ± 1.9	–
329.15 K	1442.57 ± 1.9	–
330.14 K	1440.39 ± 1.9	–
331.14 K	1438.2 ± 1.9	–
332.14 K	1436 ± 1.9	–
333.14 K	1433.79 ± 1.9	–
334.14 K	1431.57 ± 1.9	–
335.14 K	1429.34 ± 1.9	–
336.14 K	1427.1 ± 1.8	–
337.14 K	1424.84 ± 1.8	–
338.14 K	1422.58 ± 1.8	–
339.14 K	1420.31 ± 1.8	–
340.14 K	1418.03 ± 1.8	–
341.14 K	1415.72 ± 1.8	–
342.14 K	1413.42 ± 1.8	–
343.15 K	1411.1 ± 1.8	–
344.15 K	1408.78 ± 1.8	–
345.15 K	1406.43 ± 1.8	–
346.15 K	1404.08 ± 1.8	–
347.15 K	1401.72 ± 1.8	–
348.15 K	1399.34 ± 1.8	–
349.14 K	1396.95 ± 1.8	–
350.14 K	1394.55 ± 1.8	–
351.14 K	1392.14 ± 1.8	–
352.14 K	1389.72 ± 1.7	–
353.14 K	1387.29 ± 1.7	–

OCC(F)(F)C(F)(F)C(F)(F)F [2,2,3,3,4,4,4-heptafluorobutanol]
Settings	mass density [kg/m3]	vapor or sublimation pressure [kPa]
278.14 K	–	0.7213 ± 0.013
278.15 K	1633.59 ± 2.4	–
279.15 K	1631.74 ± 2.4	–
280.15 K	1629.87 ± 2.4	–
281.15 K	1627.99 ± 2.4	–
282.15 K	1626.11 ± 2.4	–
283.1 K	–	1.047 ± 0.015
283.15 K	1624.23 ± 2.4	–
284.15 K	1622.34 ± 2.4	–
285.15 K	1620.44 ± 2.4	–
286.15 K	1618.54 ± 2.4	–
287.15 K	1616.63 ± 2.4	–
288.08 K	–	1.495 ± 0.018
288.15 K	1614.73 ± 2.4	–
289.15 K	1612.81 ± 2.4	–
290.15 K	1610.89 ± 2.4	–
291.15 K	1608.97 ± 2.4	–
292.15 K	1607.04 ± 2.4	–
293.08 K	–	2.117 ± 0.021
293.15 K	1605.11 ± 2.4	–
294.15 K	1603.16 ± 2.3	–
295.15 K	1601.22 ± 2.3	–
296.15 K	1599.26 ± 2.3	–
297.15 K	1597.31 ± 2.3	–
298.1 K	–	2.965 ± 0.025
298.15 K	1595.34 ± 2.3	–
299.15 K	1593.37 ± 2.3	–
300.15 K	1591.39 ± 2.3	–
301.15 K	1589.41 ± 2.3	–
302.15 K	1587.41 ± 2.3	–
303.07 K	–	4.086 ± 0.032
303.15 K	1585.41 ± 2.3	–
304.15 K	1583.41 ± 2.3	–
305.15 K	1581.4 ± 2.3	–
306.15 K	1579.38 ± 2.3	–
307.15 K	1577.36 ± 2.3	–
308.04 K	–	5.551 ± 0.04
308.15 K	1575.32 ± 2.3	–
309.14 K	1573.28 ± 2.3	–
310.15 K	1571.23 ± 2.3	–
311.15 K	1569.18 ± 2.2	–
312.15 K	1567.12 ± 2.2	–
313.03 K	–	7.473 ± 0.051
313.14 K	1565.05 ± 2.2	–
314.15 K	1562.97 ± 2.2	–
315.15 K	1560.89 ± 2.2	–
316.15 K	1558.79 ± 2.2	–
317.15 K	1556.69 ± 2.2	–
317.98 K	–	9.905 ± 0.065
318.15 K	1554.58 ± 2.2	–
319.14 K	1552.46 ± 2.2	–
320.15 K	1550.34 ± 2.2	–
321.15 K	1548.2 ± 2.2	–
322.14 K	1546.06 ± 2.2	–
322.95 K	–	13.14 ± 0.084
323.14 K	1543.91 ± 2.2	–
324.14 K	1541.75 ± 2.2	–
325.15 K	1539.58 ± 2.2	–
326.14 K	1537.4 ± 2.2	–
327.14 K	1535.21 ± 2.1	–
327.91 K	–	17.26 ± 0.096
328.15 K	1533.02 ± 2.1	–
329.15 K	1530.81 ± 2.1	–
330.14 K	1528.6 ± 2.1	–
331.14 K	1526.38 ± 2.1	–
332.15 K	1524.14 ± 2.1	–
333.14 K	1521.91 ± 2.1	–
334.14 K	1519.66 ± 2.1	–
335.14 K	1517.4 ± 2.1	–
336.14 K	1515.13 ± 2.1	–
337.14 K	1512.85 ± 2.1	–
338.14 K	1510.57 ± 2.1	–
339.14 K	1508.28 ± 2.1	–
340.14 K	1505.97 ± 2.1	–
341.14 K	1503.65 ± 2.1	–
342.14 K	1501.33 ± 2	–
343.14 K	1498.99 ± 2	–
344.15 K	1496.65 ± 2	–
345.15 K	1494.29 ± 2	–
346.15 K	1491.93 ± 2	–
347.15 K	1489.55 ± 2	–
348.14 K	1487.16 ± 2	–
349.14 K	1484.77 ± 2	–
350.14 K	1482.37 ± 2	–
351.14 K	1479.94 ± 2	–
352.14 K	1477.52 ± 2	–
353.14 K	1475.08 ± 2	–
